The values that follow come from patent US9284271B2, “Compounds for the treatment of neurodegenerative diseases” (Katholieke Universiteit Leuven, K.U. Leuven R&D, priority 2010, dated 2016).

In this assay the test system is M17-TAU P301L cells. The experiment in a line: Tau-induced toxicity experiment: LDH leakage of retinoic acid incubated M17-TAU P301L cells. The format is cell-based. The settings on record: Homo sapiens, Neuroblastoma cell, 168 h; reduction of LDH activity of retinoic acid incubated M17-TAU P301L neuroblastoma cells; 7 days incubation; Promega Cytotox 96 assay. The text has this:
A TAU expression plasmid was constructed by sub-cloning the cDNA of human TAU-P301L (encoding for TAU with proline 301 substituted by a leucine residue) into mammalian expression vector pcDNA3.1 resulting in plasmid pcDNA3.1-TAU P301L. Plasmids pcDNA3.1 and pcDNA3.1-TAU P301L were transfected to human neuroblastoma cells ([…]; ATCC No. CRL-2267) and independent clonal lines with the plasmids stably integrated into the genome were selected. […] Expression of the TAU P301L genes in the cell lines was confirmed by Western analysis.
In degenerated or dead cells lactate dehydrogenase (LDH) is leaked out of the cells into the extracellular environment due to a loss of plasma-membrane integrity. This principle was used to determine cytotoxicity by quantifying the level of leaked LDH into the growth medium.
The detailed method for determining TAU cytotoxicity was as follows: From appropriate precultures of M17-3.1 and M17-TAU(P301L) cells were seeded at 2500 cells/cm2 in Optimem Reduced Serum without phenol red (Gibco, Cat. 31985-047) supplemented with 1% fetal calf serum, 1 mM sodium pyruvate, 1× non-essential amino acids, 500 μg/ml G418 0.5× antibiotic/antimycotic. After 3 h of incubation at 37° C./5% CO2 1 volume of Optimem Reduced Serum (same as described above; except without fetal calf serum) supplemented with 2.5 μM retinoic acid (RA) was added. The cells were further incubated for 7 days. Subsequently, LDH activity was determined using Promega Cytotox 96 Non-Radioactive cytotoxicity assay, (Cat. G1780) according the supplier's instructions.
The M17-TAU P301L cell line made it possible to assess the ability of novel compounds to counteract TAU cytotoxicity. […] These measurements were used to calculate EC50 values of table 2.
Exemplary compounds of the present invention are shown in table 2, with their chemical name and their EC50 value (expressed in nM) as determined from example 75 in the Tau-induced toxicity experiment.
Usually EC50 stands for the midpoint of the concentration-response curve. The low end stands for an effect from little substance, the high end for a need for much substance. The compound `COc1ccc(-c2cccc(C(=O)NCCc3c[nH]c4ccc(Cl)cc34)c2)cc1` [Cpd033, N-(2-(5-chloro-1H-indol-3-yl)ethyl)-4′-methoxybiphenyl-3-carboxamide] yielded a 50% effective concentration (EC50) of 223 nM. That is a sub-micromolar value.
The result for `Cc1cccc(C)c1-c1ccc(C(=O)NCCc2c[nH]c3ccc(Cl)cc23)cc1` [Cpd011, N-(2-(5-chloro-1H-indol-3-yl)ethyl)-2′,6′-dimethylbiphenyl-4-carboxamide] reads 236 nM; that for `O=C(NCCc1c[nH]c2ccc(Cl)cc12)c1ccccc1-c1ccccc1Cl` [Cpd054, 2′-chloro-N-(2-(5-chloro-1H-indol-3-yl)ethyl)biphenyl-2-carboxamide], 170 nM.
The result for `O=C(NCCc1c[nH]c2ccc(Cl)cc12)c1cccc(-c2cccc(Cl)c2)c1` [Cpd058, 3′-chloro-N-(2-(5-chloro-1H-indol-3-yl)ethyl)biphenyl-3-carboxamide] reads 186 nM.
The result for `Cc1ccccc1-c1ccccc1C(=O)NCCc1c[nH]c2ccc(Cl)cc12` [Cpd015, N-(2-(5-chloro-1H-indol-3-yl)ethyl)-2′-methylbiphenyl-2-carboxamide] reads 381 nM.
In turn, `O=C(NCCc1c[nH]c2ccc(Cl)cc12)c1cccc(-c2ccncc2)c1` [Cpd045, N-(2-(5-chloro-1H-indol-3-yl)ethyl)-3-(pyridin-4-yl)benzamide] had a concentration giving a half-maximal response (EC50) of 327 nM.
Turning to `O=C(NCCc1c[nH]c2ccc(Cl)cc12)c1ccc(-c2ccccc2)nn1` [Cpd075, N-(2-(5-chloro-1H-indol-3-yl)ethyl)-6-phenylpyridazine-3-carboxamide], it took 81 nM to reach a half-maximal effect (EC50). This EC50 is about 4-fold lower than that of the compound before.
Turning to `O=C(NCCc1c[nH]c2ccc(Cl)cc12)c1ccc(-c2ccc(C(F)(F)F)cc2)cc1` [Cpd074, N-(2-(5-chloro-1H-indol-3-yl)ethyl)-4′-(trifluoromethyl)biphenyl-4-carboxamide], the concentration for a half-maximal effect (EC50) was found to be 200 nM. Compared with the last compound, the EC50 is about 2.5-fold higher.
Then `O=C(NCCc1c[nH]c2ccc(Cl)cc12)c1ccc(N2CCOCC2)nc1` [Cpd024, N-(2-(5-chloro-1H-indol-3-yl)ethyl)-6-morpholinonicotinamide], with 765 nM; and `O=C(NCCc1c[nH]c2ccc(Cl)cc12)c1ccnc(N2CCOCC2)c1` [Cpd006, N-(2-(5-chloro-1H-indol-3-yl)ethyl)-2-morpholinoisonicotinamide], with 876 nM.
Compound `O=C(NCCc1c[nH]c2ccc(Cl)cc12)c1ccc(-c2cccc(Cl)c2)cc1` [Cpd059, 3′-chloro-N-(2-(5-chloro-1H-indol-3-yl)ethyl)biphenyl-4-carboxamide] displayed an EC50 of 130 nM.
Then `O=C(NCCc1c[nH]c2ccc(Cl)cc12)c1ccc(-c2ccc(F)cc2)cc1` [Cpd042, N-(2-(5-chloro-1H-indol-3-yl)ethyl)-4′-fluorobiphenyl-4-carboxamide], with 228 nM; and `O=C(NCCc1c[nH]c2ccc(Cl)cc12)c1ccc(-c2ccc(Cl)cc2)cc1` [Cpd061, 4′-chloro-N-(2-(5-chloro-1H-indol-3-yl)ethyl)biphenyl-4-carboxamide], with 111 nM.
Then `O=C(NCCc1c[nH]c2ccc(Cl)cc12)c1cccc(-c2ccccc2)c1` [Cpd010, N-(2-(5-chloro-1H-indol-3-yl)ethyl)biphenyl-3-carboxamide], with 187 nM; and `O=C(NCCc1c[nH]c2ccc(Cl)cc12)c1ccccc1-c1ccccc1` [Cpd008, N-(2-(5-chloro-1H-indol-3-yl)ethyl)biphenyl-2-carboxamide], with 249 nM.
Then `Cc1ccc(-c2ccccc2C(=O)NCCc2c[nH]c3ccc(Cl)cc23)cc1` [Cpd021, N-(2-(5-chloro-1H-indol-3-yl)ethyl)-4′-methylbiphenyl-2-carboxamide], with 237 nM; and `O=C(NCCc1c[nH]c2ccc(Cl)cc12)c1ccc(-c2ccccc2)cc1` [Cpd002, N-(2-(5-chloro-1H-indol-3-yl)ethyl)biphenyl-4-carboxamide], with 130 nM.
`N#Cc1ccc(-c2ccccc2C(=O)NCCc2c[nH]c3ccc(Cl)cc23)cc1` [Cpd051, N-(2-(5-chloro-1H-indol-3-yl)ethyl)-4′-cyanobiphenyl-2-carboxamide] came in with an EC50 of 325 nM.
In the case of `COc1ccc(-c2ccccc2C(=O)NCCc2c[nH]c3ccc(Cl)cc23)cc1` [Cpd032, N-(2-(5-chloro-1H-indol-3-yl)ethyl)-4′-methoxybiphenyl-2-carboxamide], the response was half-maximal at 200 nM (EC50).
`O=C(NCCc1c[nH]c2ccc(Cl)cc12)c1ccc(-c2ccc(O)cc2)cc1` [Cpd014, N-(2-(5-chloro-1H-indol-3-yl)ethyl)-4′-hydroxybiphenyl-4-carboxamide] showed an EC50 of 57 nM.
Then `Cc1cccc(-c2cccc(C(=O)NCCc3c[nH]c4ccc(Cl)cc34)c2)c1` [Cpd019, N-(2-(5-chloro-1H-indol-3-yl)ethyl)-3′-methylbiphenyl-3-carboxamide], with 709 nM; and `Cc1ccc(-c2cccc(C(=O)NCCc3c[nH]c4ccc(Cl)cc34)c2)cc1` [Cpd022, N-(2-(5-chloro-1H-indol-3-yl)ethyl)-4′-methylbiphenyl-3-carboxamide], with 354 nM.
The result for `O=C(NCCc1c[nH]c2ccc(Cl)cc12)c1ccccc1-c1cccc(F)c1` [Cpd038, N-(2-(5-chloro-1H-indol-3-yl)ethyl)-3′-fluorobiphenyl-2-carboxamide] reads 226 nM; that for `O=C(NCCc1c[nH]c2ccc(Cl)cc12)c1cccc(-c2ccc(F)cc2)c1` [Cpd041, N-(2-(5-chloro-1H-indol-3-yl)ethyl)-4′-fluorobiphenyl-3-carboxamide], 186 nM.
Then `O=C(NCCc1c[nH]c2ccc(Cl)cc12)c1ccccc1-c1cccc(Cl)c1` [Cpd057, 3′-chloro-N-(2-(5-chloro-1H-indol-3-yl)ethyl)biphenyl-2-carboxamide], with 159 nM; and `O=C(NCCc1c[nH]c2ccc(Cl)cc12)c1ccccc1-c1cccc(C(F)(F)F)c1` [Cpd064, N-(2-(5-chloro-1H-indol-3-yl)ethyl)-3′-(trifluoromethyl)biphenyl-2-carboxamide], with 418 nM.
Take `O=C(NCCc1c[nH]c2ccc(Cl)cc12)c1cccc(-c2ccccc2F)c1` [Cpd036, N-(2-(5-chloro-1H-indol-3-yl)ethyl)-2′-fluorobiphenyl-3-carboxamide]: the EC50 worked out at 139 nM. Compared with the last compound, the EC50 is about 3-fold lower.
For the compound `O=C(NCCc1c[nH]c2ccc(Cl)cc12)c1cccc(-c2ccccc2Cl)c1` [Cpd055, 2′-chloro-N-(2-(5-chloro-1H-indol-3-yl)ethyl)biphenyl-3-carboxamide], the response was half-maximal at 158 nM (EC50).
The result for `O=C(NCCc1c[nH]c2ccc(Cl)cc12)c1ccc(-c2ccccc2F)cc1` [Cpd037, N-(2-(5-chloro-1H-indol-3-yl)ethyl)-2′-fluorobiphenyl-4-carboxamide] reads 61 nM; that for `COc1ccc(-c2ccc(C(=O)NCCc3c[nH]c4ccc(Cl)cc34)cc2)cc1` [Cpd034, N-(2-(5-chloro-1H-indol-3-yl)ethyl)-4′-methoxybiphenyl-4-carboxamide], 91 nM.
For `Cc1ccc(-c2ccccc2C(=O)NCCc2c[nH]c3ccc(Cl)cc23)cc1C` [Cpd071, N-(2-(5-chloro-1H-indol-3-yl)ethyl)-3′,4′-dimethylbiphenyl-2-carboxamide], the EC50 is 546 nM.
`O=C(NCCc1c[nH]c2ccc(Cl)cc12)c1ccccc1-n1cccn1` [Cpd025, N-(2-(5-chloro-1H-indol-3-yl)ethyl)-2-(1H-pyrazol-1-yl)benzamide] returned a concentration giving a half-maximal response (EC50) of 760 nM.
The result for `O=C(NCCc1c[nH]c2ccc(Cl)cc12)c1cccc(-c2ccc(C(F)(F)F)cc2)c1` [Cpd068, N-(2-(5-chloro-1H-indol-3-yl)ethyl)-4′-(trifluoromethyl)biphenyl-3-carboxamide] reads 367 nM.
In turn, `O=C(NCCc1c[nH]c2ccc(Cl)cc12)c1cccc(-c2ccc(O)cc2)c1` [Cpd013, N-(2-(5-chloro-1H-indol-3-yl)ethyl)-4′-hydroxybiphenyl-3-carboxamide] registered a 50% effective concentration (EC50) of 77 nM.
Turning to `Cc1cccc(C)c1-c1cccc(C(=O)NCCc2c[nH]c3ccc(Cl)cc23)c1` [Cpd070, N-(2-(5-chloro-1H-indol-3-yl)ethyl)-2′,6′-dimethylbiphenyl-3-carboxamide], the EC50 stood at 606 nM.
Regarding `Cc1ccc(-c2ccc(C(=O)NCCc3c[nH]c4ccc(Cl)cc34)cc2)cc1` [Cpd023, N-(2-(5-chloro-1H-indol-3-yl)ethyl)-4′-methylbiphenyl-4-carboxamide], the concentration giving a half-maximal response (EC50) was found to be 235 nM.
Then `N#Cc1ccccc1-c1ccc(C(=O)NCCc2c[nH]c3ccc(Cl)cc23)cc1` [Cpd044, N-(2-(5-chloro-1H-indol-3-yl)ethyl)-2′-cyanobiphenyl-4-carboxamide], with 75 nM; and `N#Cc1ccc(-c2ccc(C(=O)NCCc3c[nH]c4ccc(Cl)cc34)cc2)cc1` [Cpd053, N-(2-(5-chloro-1H-indol-3-yl)ethyl)-4′-cyanobiphenyl-4-carboxamide], with 85 nM.
